Values of other authors in patent publication US20220152157A1 (priority 2020, published 2022).
Like-named read-outs stand apart in the source and are kept apart here.

Assays:
influenza A virus = conditions: for membrane convergence of virus and host cell: influenza A, model MDCK cells
[1] = tested on: Toll-like receptors (TLR)
pulmonary inflammation = conditions: in vivo
virus [2] = conditions: mice
virus [3] = conditions: ferrets
[4] = tested on: human respiratory viruses; conditions: combined with ribavirin, in vitro
[5] = tested on: human respiratory viruses; conditions: combined with ribavirin, experimental animal models

Molecule	binding affinity for the influenza A virus (influenza A virus)	binding of the influenza A virus to the surrogate host cells (influenza A virus)	membrane convergence of virus and host cell (influenza A virus)	deactivation of Toll-like receptors (TLR) [1]	lowering of total inflammatory cell infiltrates (neutrophils and lymphocytes) (pulmonary inflammation) [%]	virus-induced proinflammatory cytokines (pulmonary inflammation)	viricidal effect (virus [2])	viricidal effect (virus [3])	antiviral effects of the combination [4]	antiviral effects of the combination [5]
1-palmitoyl-2-oleoyl-sn-glycero-3-phosphoglycerol [POPG]	high binding affinity	prevent the binding	inhibited	deactivators of Toll-like receptors	> 90	reduced	viricidal	viricidal		
CCCCC/C=C\C/C=C\C/C=C\C/C=C\CCCC(=O)OC(COC(=O)CCCCCCCCCCCCCCCCC)COP(=O)(O)OC1C(O)C(O)C(O)C(O)C1O (centres unmarked) [PI, phosphatidyl inositol]	high binding affinity	prevent the binding	inhibited	deactivators of Toll-like receptors		reduced				
CC(N)C12CC3CC(CC(C3)C1)C2 (centres unmarked) [Rimantadine]									increased antiviral effects	increased antiviral effects
NC12CC3CC(CC(C3)C1)C2 [amantadine]									increased antiviral effects	increased antiviral effects
